One molecule from PMC12713470, “Design and Synthesis of Novel Chalcone Derivatives Targeting Bladder and Liver Cancer: Cytotoxicity Evaluation and Preliminary Mechanistic Studies” (ACS Omega, 2025) can be followed below.

Test [1] has as its system HeLa: human cervical adenocarcinoma cells. As to the kind of experiment: MTT cytotoxicity assay on HeLa cells. The class given is cell-based. The method, then: (§1) Cytotoxicity was determined using the MTT colorimetric assay, and half-maximal inhibitory concentrations (IC50, μM) were obtained for all cell lines (Table ). The selectivity index (SI) was calculated as the ratio of IC50 MRC-5/IC50 cancer cell line. Doxorubicin was employed as a positive control due to its broad-spectrum clinical use, either alone or in combination, against hepatocellular, ovarian, cervical, and bladder cancers. −
(§2) In vitro biological assays were performed by using five human cell lines for cytotoxicity evaluation. HepG2 cells (ATCC HB-8065), derived from a human hepatocellular carcinoma of the liver (person), were cultured in Dulbecco’s modified Eagle medium (DMEM) supplemented with 5% fetal bovine serum (FBS), penicillin/streptomycin (100 IU/mL), and amphotericin B (5 μg/mL), in a humidified incubator with 5% CO2 at 37 °C. These cells were plated at a concentration of 2.0 × 10^4 cells/well in 96-well microplates. MRC-5 cells (ATCC CCL-171), derived from human lung fibroblasts of a […] fetus, were cultured under the same conditions and plated at 1.0 × 10^4 cells/well. T24 cells (ATCC HTB-4), established from a transitional cell carcinoma of the bladder (person), were also cultured under identical conditions and plated at a density of 1.0 × 10^4 cells/well. TOV-21G cells (ATCC CRL-11730), derived from a primary malignant ovarian adenocarcinoma (person), were maintained in DMEM with the same supplementation and environmental conditions and plated at 5.0 × 10^4 cells/well. […]
(§3) HeLa, HepG2, MRC-5, T24, and TOV-21G cells were suspended in a culture medium supplemented with 5% fetal bovine serum (FBS) and seeded into 96-well microplates. The plates were incubated under a humidified atmosphere containing 5% CO2 at 37 °C for 24 h, allowing for adherence and monolayer formation. , Eight serial dilutions of the test samples, previously solubilized in dimethyl sulfoxide (DMSO), were prepared in DMEM supplemented with 1% FBS, covering a concentration range from […], and the results were converted to […]. The volume of DMSO in each well was limited to a final concentration not exceeding 2%. Following monolayer formation, the culture medium was aspirated and replaced with 100 μL of the diluted test samples and 100 μL of DMEM containing 1% FBS. The plates were then incubated under the same atmospheric and temperature conditions.
(§4) Two hours prior to end point reading, 20 μL of MTT [3-(4,5-dimethylthiazol-2-yl)-2,5-diphenyltetrazolium bromide] solution (1.0 mg/mL in sterile phosphate-buffered saline, Sigma-Aldrich) was added to each well. The incubation period following sample addition varied according to the cell line: 24 h for MRC-5, 48 h for T24, and 72 h for HeLa, HepG2, and TOV-21G. After the appropriate incubation, absorbance was measured by using a VICTOR X3 microplate reader (PerkinElmer), and data were processed with WorkOut 2.5 software at a wavelength of 490 nm. Formazan formation, resulting from the MTT reduction by metabolically active cells, was used as an indirect measure of cell viability. The percentage of cytotoxicity was calculated using the equation % cytotoxicity = [(A – B)/A] × 100, where A is the optical density (OD4 9 0) of untreated control cells and B is the OD4 9 0 of treated cells.
(§5) Cytotoxicity was expressed as the 50% cytotoxic concentration (CC5 0), representing the concentration of sample required to reduce cell viability by 50% relative to that of the untreated control.
Background: Tetrazolium assays rely on reduction of a dye to a coloured formazan, in cell work by metabolically active cells.

The test system of test [2] is TOV-21G: human ovarian adenocarcinoma cells. As to the kind of experiment: MTT cytotoxicity assay on TOV-21G cells. The class given is cell-based. As for the experimental part:
as §1, §2, §3, §4, §5

One may read the IC50 as the point on the concentration scale where inhibition reaches its midpoint.

Turning to `CCCc1cc(/C=C/C(=O)c2ccc(C)cc2)c(OC)c(OC)c1` [compound 3, (E)-3-(2,3-Dimethoxy-5-propylphenyl)-1-(p-tolyl)-prop-2-en-1-one], the concentration for half-maximal inhibition (IC50) turned out to be 5.9 ± 1.6 µM in test [1] (Homo sapiens, HeLa, MTT, 72 h incubation, n = 3, NA: noncytotoxic at the concentrations tested) and 3000 ± 2600 nM in test [2] (Homo sapiens, TOV21G, MTT, 72 h incubation, n = 3, NA: noncytotoxic at the concentrations tested). The “SI (HeLa)” value in test [1] (IC50 MRC-5/IC50 HeLa) is listed as 9.3. Moreover, the “SI (TOV-21G)” value in test [2] (IC50 MRC-5/IC50 TOV-21G) is 18.2.
